What was measured:
[1] = system: P. aeruginosa (ATCC 9027); assay: Antimicrobial susceptibility (broth microdilution), PA 9027; assay type: cell-based, Pseudomonas aeruginosa; settings: for MIC: Pseudomonas aeruginosa, ATCC9027, read-out: antibacterial activity (MIC) PA 9027; for antibacterial activity in words, PA 9027: summary of Table 1
Protocol: (§1) The following are general steps, unless otherwise noted. All steps were completed using aseptic techniques. All media and glassware were sterilized via an autoclave at 121 °C for 60 min. All agitation occurred at 160 rpm in a temperature-controlled console shaker (Excella E25) at 37 °C. Full-strength tryptic soy broth (TSB) was made by dissolving 30 g of BD Bacto TSB powder in 1 L of deionized water. Purchased and acquired bacterial strains used were E. coli (ATCC 25922), P. aeruginosa (ATCC 9027), drug-resistant P. aeruginosa from ATCC Panel MP-23 (BAA 2108, BAA 2109, BAA 2110), and P. aeruginosa efflux knockout GKCW120 (PΔ6)[6] provided by Zgurskaya and co-workers at the University of Oklahoma.
(§2) Susceptibility testing was performed in biological triplicate using the broth microdilution method as outlined by the Clinical and Laboratory Standards Institute. […] Briefly, to each well, 1 μL of compound in DMSO, 89 μL of TSB, and 10 μL of bacterial inoculum, grown from a single colony in 10 mL of TSB for 4–6 h, were added. After incubation for 12–15 h at 37 °C, absorbance at 590 nm was read on a Biotek Synergy HTX Multimode plate reader. Data were processed by background subtracting the media absorbance and then normalizing the data to full bacterial growth with the vehicle only. MIC is defined as the lowest concentration of antibiotic or antibiotic/adjuvant combination that achieves ≥85% growth inhibition, which corresponds to no visible growth.
(§3) Initial antibacterial activity screen of compounds 4, 5, and S1-S6
(§4) Compounds 4, 5, and S1-S6 were screened for initial antibiotic activity against a susceptible laboratory strain of EC (designated EC 25922), and non-virulent, biofilm forming strain of PA (designated PA 9027), and PD6 (efflux knockout strain6) at 128 µg/mL in DMSO. Sterilization and Antimicrobial Susceptibility Assay procedures utilized were the same as described in the methods.
(§5) Table S1. Antibacterial activity screening results for compounds 4, 5, and S1-S6 at 128 µg/mL
(§6) Table S1. Antibacterial activity screening results for compounds 4, 5, and S1-S6 at 128 µg/mL.

[2] = system: E. coli (ATCC 25922); assay: Antimicrobial susceptibility (broth microdilution), EC 25922; assay type: cell-based, Escherichia coli; settings: for MIC: Escherichia coli, ATCC25922, read-out: antibacterial activity (MIC) EC 25922; for antibacterial activity in words, EC 25922: summary of Table 1
Protocol: as §1, §2, §3, §4, §5, §6

[3] = system: drug-resistant P. aeruginosa BAA 2108; assay: Antimicrobial susceptibility (broth microdilution), BAA 2108; assay type: cell-based, Pseudomonas aeruginosa; settings: for MIC: Pseudomonas aeruginosa, BAA2108, read-out: antibacterial activity (MIC) BAA 2108; for antibacterial activity in words, BAA 2108: summary of Table 1
Protocol: as §1, §2

[4] = system: drug-resistant P. aeruginosa BAA 2109; assay: Antimicrobial susceptibility (broth microdilution), BAA 2109; assay type: cell-based, Pseudomonas aeruginosa; settings: for MIC: Pseudomonas aeruginosa, BAA2109, read-out: antibacterial activity (MIC) BAA 2109; for antibacterial activity in words, BAA 2109: summary of Table 1
Protocol: as §1, §2

[5] = Solubility in DMSO; assay type: physicochemical
[6] = system: EC electron transport chain; assay: Electron transport activity (NADH-driven H+ pumping, ACMA quenching), E. coli DK8/pASH20 vesicles; assay type: biochemical, Escherichia coli; settings: for inhibition of EC ETC-driven H+ pumping, in words: 0-64 µg/mL, Figure S2; for Inhibition of the EC electron transport chain IC50: EC (DK8/pASH20) vesicles
Protocol: Determination of electron transport activity. In an opaque black 96-well plate, inverted membrane
vesicles from PA or E. coli DK8 pASH20 were added to HMK buffer containing 0.3 µg/mL 9-amino-6-chloro-
2-methoxyacridine (ACMA) and 0-64 µg/mL test compound in DMSO. After measurement of baseline
ACMA fluorescence for 60 s, redox-driven H+ pumping was initiated by addition of NADH to 0.8 mM, and
fluorescence quenching was monitored for 120 s before addition of nigericin to 0.5 µg/mL. Relative
activity is reported as the minimum fluorescence value normalized to the maximum fluorescence value
following addition of nigericin. […]

[7] = target: luciferase (Photinus pyralis, UniProt P08659); assay: Inhibition of luciferase by quinoline compounds; assay type: biochemical; settings: after 500-fold dilution; Figure S4
Protocol: Continuous ATP synthesis activity of inverted membrane vesicles was measured using a luciferin/luciferase luminescence assay as previously described.[22] Inhibition of ATP synthesis activity by test compounds was determined using an end point assay essentially as previously described.[18],[26] In this assay, the synthesis reaction was initiated by 2.5 mM NADH, proceeded for 10 min, and was stopped with 1% trichloroacetic acid, 2 mM CCCP, and 10 mM EDTA. Samples from each reaction were diluted 500-fold prior to the addition of luciferase since quinoline compounds are known to inhibit luciferase.[27] This dilution was sufficient to minimize inhibition of luciferase (Figure S4). Each replicate set included a positive control containing DMSO with no compound and a negative control containing carbonyl cyanide m-chlorophenyl hydrazone. Luminescence values were corrected for the background by subtracting the negative control and then normalized to the positive control within the same replicate. Dose–response curves were fit using eq 1, where activity is the relative ATP synthesis activity, [I] is the concentration of inhibitor in μg/mL, and n is the Hill coefficient. [drawing 1] 1
Table S2: All IC50 values and Hill coefficients for dose response fits of inhibition of ATP synthesis activity. […]
luciferase) at the indicated concentrations, and luminescence was measured after the addition of ATP to […]

[8] = system: P. aeruginosa efflux knockout GKCW120 (PΔ6); assay: Antimicrobial susceptibility (broth microdilution), PΔ6 efflux knockout; assay type: cell-based, Pseudomonas aeruginosa; settings: for Antibacterial activity screening result, P∆6: at 128 µg/mL in DMSO; for antibacterial activity (MIC) PΔ6: n = 3, >85% reduction in growth at OD 590 nm; for antibacterial activity in words, PΔ6: summary of Table 1
Protocol: as §1, §2, §3, §4, §5, §6

Sequence of luciferase (P08659 whole entry): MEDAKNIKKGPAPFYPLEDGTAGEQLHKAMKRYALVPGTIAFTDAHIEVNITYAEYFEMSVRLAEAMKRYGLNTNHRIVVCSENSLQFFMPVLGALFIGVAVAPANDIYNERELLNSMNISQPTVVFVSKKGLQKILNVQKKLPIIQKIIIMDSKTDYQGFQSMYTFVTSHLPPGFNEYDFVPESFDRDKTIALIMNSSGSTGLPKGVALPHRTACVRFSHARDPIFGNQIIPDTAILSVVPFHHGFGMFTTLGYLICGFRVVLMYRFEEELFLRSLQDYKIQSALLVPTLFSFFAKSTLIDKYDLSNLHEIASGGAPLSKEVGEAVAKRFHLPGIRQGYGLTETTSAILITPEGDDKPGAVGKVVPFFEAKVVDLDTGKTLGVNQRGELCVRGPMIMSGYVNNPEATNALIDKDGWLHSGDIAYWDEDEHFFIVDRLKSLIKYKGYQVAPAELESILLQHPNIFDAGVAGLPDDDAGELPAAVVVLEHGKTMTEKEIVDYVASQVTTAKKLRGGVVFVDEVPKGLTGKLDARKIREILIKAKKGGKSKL

SMILES	MIC [1] [µg/mL]	antibacterial activity in words, PA 9027 [1]	MIC [2] [µg/mL]	antibacterial activity in words, EC 25922 [2]	MIC [3] [µg/mL]	antibacterial activity in words, BAA 2108 [3]	MIC [4] [µg/mL]	antibacterial activity in words, BAA 2109 [4]	solubility in dimethyl sulfoxide (DMSO) ([5]; at 128 μg/mL)	solubility in dimethyl sulfoxide (DMSO) ([5]; at 256 μg/mL)	inhibition of EC ETC-driven H+ pumping, in words [6]	Inhibition of the EC electron transport chain IC50 [6] [µg/mL]	inhibition of luciferase, in words [7]	Antibacterial activity screening result, P∆6 [8]	antibacterial activity (MIC) PΔ6 [8] [µg/mL]	antibacterial activity in words, PΔ6 [8]	Antibacterial activity screening result, EC 25922 ([2]; at 128 µg/mL in DMSO)
CSc1nc2ccccc2cc1CNCc1ccc(CN(C)C)cc1 [Compound 4, N,N-Dimethyl-1-(4-((((2-(methylthio)quinolin-3-yl)methyl)amino)methyl)phenyl)methanamine]	> 256	inactive	256	weakly inhibit	128 to 256	able to inhibit	256	able to inhibit	very soluble	fully soluble	mildly inhibited	61	did not significantly inhibit	I	64 to 128	weakly inhibit	–
CN(C)Cc1ccc(CNCc2cc3ccccc3nc2SCc2ccccc2)cc1 [Compound 5, 1-(4-((((2-(Benzylthio)quinolin-3-yl)methyl)amino)methyl)phenyl)-N,N-dimethylmethanamine]	> 128	inactive	64	more potent	64	more potent	> 128	inactive	very soluble	partially soluble	mildly inhibited	>64	did not significantly inhibit	I	16	more potent	I
